Reference: PubChem BioAssay AID330 (DTP/NCI, 2004)
Where “and” joins values, the source holds several entries; their conditions need not be identical. Identical values can stand only once. Inconclusive results and toxic doses are left out. Peptide text beside a SMILES is read from it. * marks the point of attachment. Trt = c1ccc(C(c2ccccc2)(c2ccccc2)*)cc1; Bn = c1ccc(C*)cc1

Tested on: P388 leukemia ip, CD2F1 mice, survival T/C
Assay: NCI In Vivo Anticancer Drug Screen. Data for tumor model P388 Leukemia (intraperitoneal) in CD2F1 (CDF1) mice
Settings: endpoint: median survival time, higher = longer survival
Method in brief: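 Mice carrying the transplanted tumor received test compound or vehicle. Survival was recorded in each group, and the value is the treated-group measurement divided by that of the vehicle-treated control group.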

[1] = dose: 60.0 mg/kg/injection, schedule: Q01DX005 (ip), vehicle: saline with Tween-80
[2] = dose: 50.0 mg/kg/injection, schedule: Q01DX009 (ip), vehicle: saline with Tween-80
[3] = dose: 100.0 mg/kg/injection, schedule: Q01DX009 (ip), vehicle: saline with Tween-80
[4] = dose: 200.0 mg/kg/injection, schedule: Q01DX009 (ip), vehicle: saline with Tween-80
[5] = dose: 60.0 mg/kg/injection, schedule: Q01DX005 (ip), vehicle: saline
[6] = dose: 50.0 mg/kg/injection, schedule: Q01DX005 (ip), vehicle: Klucel (hydroxypropylcellulose) (HPC)
[7] = dose: 100.0 mg/kg/injection, schedule: Q01DX005 (ip), vehicle: Klucel (hydroxypropylcellulose) (HPC)

In the case of `Nc1ccc(C(O)(C(F)(F)F)C(F)(F)F)c(C(=O)O)c1`, the T/C (dose: 100.0 mg/kg/injection, schedule: Q04DX003 (ip), vehicle: other) is reported as 104 % of control, the T/C (dose: 200.0 mg/kg/injection, schedule: Q04DX003 (ip), vehicle: other) is reported as 100 % of control and the T/C (dose: 400.0 mg/kg/injection, schedule: Q04DX003 (ip), vehicle: other) is reported as 109 % of control.

`COC1=CC(=O)c2ncc(Cl)cc2C1=O` was tested, and the T/C (dose: 30.0 mg/kg/injection, schedule: Q01DX005 (ip), vehicle: saline with Tween-80) was 111 % of control and the T/C [1] was 100 % of control and 93 % of control.

`CCN(CC)Cc1cc(N)cc(N=Nc2ccc3c(c2)c2ccccc2n3CC)c1O` was tested, and the T/C [2] was 97 % of control, the T/C [3] was 108 % of control and the T/C [4] was 105 % of control.

For `COc1cc2c(c(OC)c1OC)-c1cc3c(cc1C(OC1OC(CO)C(O)C(O)C1O)C1COC(=O)C1C2)OCO3` (stereo not drawn), the T/C (dose: 15.38 mg/kg/injection, schedule: Q01DX005 (ip), vehicle: Klucel (hydroxypropylcellulose) (HPC)) was 108 % of control, the T/C (dose: 30.75 mg/kg/injection, schedule: Q01DX005 (ip), vehicle: Klucel (hydroxypropylcellulose) (HPC)) was 100 % of control and the T/C (dose: 61.5 mg/kg/injection, schedule: Q01DX005 (ip), vehicle: Klucel (hydroxypropylcellulose) (HPC)) was 113 % of control. For the same molecule, the T/C (dose: 123.0 mg/kg/injection, schedule: Q01DX005 (ip), vehicle: Klucel (hydroxypropylcellulose) (HPC)) was 121 % of control.

With `CC1(C)COC(=O)/C1=C1\SC(=O)NC1=O` the T/C (dose: 100.0 mg/kg/injection, schedule: Q04DX003 (ip), vehicle: saline) was 95 % of control, the T/C (dose: 200.0 mg/kg/injection, schedule: Q04DX003 (ip), vehicle: saline) was 94 % of control and the T/C (dose: 400.0 mg/kg/injection, schedule: Q04DX003 (ip), vehicle: saline) was 102 % of control.

For `CSC1(CC(=O)N(C)C)C(=O)N(C)c2ccccc21` (stereo not drawn), the T/C (dose: 25.0 mg/kg/injection, schedule: Q01DX009 (ip), vehicle: saline with Tween-80) was 100 % of control, the T/C [2] was 94 % of control and the T/C [3] was 115 % of control.

In the case of `NC(N)=N/N=C/C(O)C(O)C(O)C(O)CO` (stereo not drawn), the T/C [5] is reported as 100 % of control, the T/C (dose: 120.0 mg/kg/injection, schedule: Q01DX005 (ip), vehicle: saline) is reported as 100 % of control and the T/C (dose: 240.0 mg/kg/injection, schedule: Q01DX005 (ip), vehicle: saline) is reported as 106 % of control.

With `C=CCNc1nc2c(s1)c1c(O)c3c(O)c(C)c4c(c32)C(=O)C(C)(O/C=C\C(OC)C(C)C(OC(C)=O)C(C)C(O)C(C)C(O)C(C)/C=C/C=C(/C)C(=O)N1)O4` (stereo not drawn) the T/C (dose: 25.0 mg/kg/injection, schedule: Q01DX009 (ip), vehicle: Klucel (hydroxypropylcellulose) (HPC)) was 98 % of control, the T/C (dose: 50.0 mg/kg/injection, schedule: Q01DX009 (ip), vehicle: Klucel (hydroxypropylcellulose) (HPC)) was 100 % of control and the T/C (dose: 100.0 mg/kg/injection, schedule: Q01DX009 (ip), vehicle: Klucel (hydroxypropylcellulose) (HPC)) was 100 % of control. For the same molecule, the T/C (dose: 200.0 mg/kg/injection, schedule: Q01DX009 (ip), vehicle: Klucel (hydroxypropylcellulose) (HPC)) was 94 % of control.

`O=C1C=C2C=CC(O)C(O)C2O1` (stereo not drawn) was tested, and the T/C (dose: 2.5 mg/kg/injection, schedule: Q01DX009 (ip), vehicle: Klucel (hydroxypropylcellulose) (HPC)) was 102 % of control, the T/C (dose: 5.0 mg/kg/injection, schedule: Q01DX009 (ip), vehicle: Klucel (hydroxypropylcellulose) (HPC)) was 98 % of control and the T/C (dose: 10.0 mg/kg/injection, schedule: Q01DX009 (ip), vehicle: Klucel (hydroxypropylcellulose) (HPC)) was 100 % of control. The T/C (dose: 20.0 mg/kg/injection, schedule: Q01DX009 (ip), vehicle: Klucel (hydroxypropylcellulose) (HPC)) was 94 % of control.

With `COC(=O)C(CSC(c1ccccc1)(c1ccccc1)c1ccccc1)NC(=O)C(CSCc1ccccc1)NC(C)=O` (stereo not drawn) (Ac-Cys(Bn)-Cys(Trt)-OMe; configuration not given here) the T/C (dose: 4.0 mg/kg/injection, schedule: Q01DX009 (ip), vehicle: water) was 96 % of control, the T/C (dose: 8.0 mg/kg/injection, schedule: Q01DX009 (ip), vehicle: water) was 104 % of control and the T/C (dose: 16.0 mg/kg/injection, schedule: Q01DX009 (ip), vehicle: water) was 101 % of control. The T/C (dose: 32.0 mg/kg/injection, schedule: Q01DX009 (ip), vehicle: water) was 95 % of control, the T/C (dose: 64.0 mg/kg/injection, schedule: Q01DX009 (ip), vehicle: water) was 95 % of control and the T/C (dose: 128.0 mg/kg/injection, schedule: Q01DX009 (ip), vehicle: water) was 90 % of control.

`C/C(=N\N=C(N)N)c1c(C)nn(C(=N)N)c1C` was tested, and the T/C (dose: 15.0 mg/kg/injection, schedule: Q01DX005 (ip), vehicle: saline) was 99 % of control, the T/C (dose: 30.0 mg/kg/injection, schedule: Q01DX005 (ip), vehicle: saline) was 98 % of control and the T/C [5] was 99 % of control and 111 % of control.

In the case of `COc1ccccc1N1C(=O)/C(=N\OC(=O)c2c(-c3c(Cl)cccc3Cl)noc2C)SC1=S`, the T/C (dose: 50.0 mg/kg/injection, schedule: Q01DX009 (ip), vehicle: saline) is reported as 104 % of control, the T/C (dose: 100.0 mg/kg/injection, schedule: Q01DX009 (ip), vehicle: saline) is reported as 90 % of control and the T/C (dose: 200.0 mg/kg/injection, schedule: Q01DX009 (ip), vehicle: saline) is reported as 89 % of control.

With `O=C(Nc1nnc(-c2ccccc2)s1)c1cc(=O)c2ccccc2o1` the T/C (dose: 50.0 mg/kg/injection, schedule: Q01DX005 (ip), vehicle: saline with Tween-80) was 93 % of control, the T/C (dose: 100.0 mg/kg/injection, schedule: Q01DX005 (ip), vehicle: saline with Tween-80) was 96 % of control and the T/C (dose: 200.0 mg/kg/injection, schedule: Q01DX005 (ip), vehicle: saline with Tween-80) was 92 % of control.

`CS/N=C(/c1ccc(/C(=N/SC)N(C)C)cc1)N(C)C` was tested, and the T/C (dose: 60.0 mg/kg/injection, schedule: Q01DX005 (ip), vehicle: Klucel (hydroxypropylcellulose) (HPC)) was 106 % of control, the T/C [1] was 100 % of control and the T/C (dose: 120.0 mg/kg/injection, schedule: Q01DX005 (ip), vehicle: Klucel (hydroxypropylcellulose) (HPC)) was 106 % of control. The T/C (dose: 120.0 mg/kg/injection, schedule: Q01DX005 (ip), vehicle: saline with Tween-80) was 102 % of control and the T/C (dose: 240.0 mg/kg/injection, schedule: Q01DX005 (ip), vehicle: saline with Tween-80) was 99 % of control.

`N#Cc1c(C(F)(F)F)cc(-c2cccs2)nc1SC(C(=O)Nc1c(F)cccc1F)c1ccccc1` (stereo not drawn) was tested, and the T/C [6] was 94 % of control, the T/C [7] was 94 % of control and the T/C (dose: 200.0 mg/kg/injection, schedule: Q01DX005 (ip), vehicle: Klucel (hydroxypropylcellulose) (HPC)) was 94 % of control.

With `CCc1nc(N)nc(N)c1-c1ccc(Cl)c([N+](=O)[O-])c1` the T/C (dose: 0.78 mg/kg/injection, schedule: Q01DX009 (ip), vehicle: distilled water + Tween-80) was 105 % of control, the T/C (dose: 3.13 mg/kg/injection, schedule: Q01DX009 (ip), vehicle: distilled water + Tween-80) was 120 % of control and 123 % of control and the T/C (dose: 6.25 mg/kg/injection, schedule: Q01DX009 (ip), vehicle: distilled water + Tween-80) was 170 % of control. The T/C (dose: 12.5 mg/kg/injection, schedule: Q01DX009 (ip), vehicle: distilled water + Tween-80) was 163 % of control.

`C/C=C/c1cnc2nc(N)nc(N)c2n1` was tested, and the T/C (dose: 100.0 mg/kg/injection, schedule: Q04DX002 (ip), vehicle: saline with Tween-80) was 99 % of control, the T/C (dose: 200.0 mg/kg/injection, schedule: Q04DX002 (ip), vehicle: saline with Tween-80) was 104 % of control and the T/C (dose: 400.0 mg/kg/injection, schedule: Q04DX002 (ip), vehicle: saline with Tween-80) was 107 % of control.

For `O=C(C[n+]1cc2ccccc2c2ccccc21)c1ccc(-c2ccccc2)cc1`, the T/C (dose: 6.25 mg/kg/injection, schedule: Q01DX005 (ip), vehicle: Klucel (hydroxypropylcellulose) (HPC)) was 104 % of control, the T/C (dose: 12.5 mg/kg/injection, schedule: Q01DX005 (ip), vehicle: Klucel (hydroxypropylcellulose) (HPC)) was 104 % of control and the T/C (dose: 25.0 mg/kg/injection, schedule: Q01DX005 (ip), vehicle: Klucel (hydroxypropylcellulose) (HPC)) was 110 % of control. For the same molecule, the T/C [6] was 105 % of control and the T/C [7] was 109 % of control.

For `CC(=O)N1C(C(=O)O)Cc2c([nH]c3ccccc23)C1(C)C` (stereo not drawn), the T/C (dose: 100.0 mg/kg/injection, schedule: Q01DX001 (ip), vehicle: suspension in saline) was 108 % of control, the T/C (dose: 200.0 mg/kg/injection, schedule: Q01DX001 (ip), vehicle: suspension in saline) was 95 % of control and the T/C (dose: 400.0 mg/kg/injection, schedule: Q01DX001 (ip), vehicle: suspension in saline) was 107 % of control.

For `C[C@@](O)(/C=C/[C@H]1CC=CC(=O)O1)[C@@H](C[C@@H](O)\C=C/C=C\C=C\CO)OP(=O)(O)O`, the T/C (dose: 12.5 mg/kg/injection, schedule: Q01DX005 (ip), vehicle: other) was 150 % of control and 157 % of control and the T/C (dose: 25.0 mg/kg/injection, schedule: Q01DX005 (ip), vehicle: other) was 174 % of control.

For `Oc1ccccc1C=Nc1ccccc1C(F)(F)F`, the T/C [2] was 101 % of control, the T/C [3] was 103 % of control and the T/C [4] was 95 % of control. The T/C (dose: 400.0 mg/kg/injection, schedule: Q01DX009 (ip), vehicle: saline with Tween-80) was 97 % of control.
